Reference: article PMC3587609, “A Novel Cell-Penetrating Peptide Derived from Human Eosinophil Cationic Protein” (PLoS ONE, 2013)
No end group written: not given here.

What was measured:
[1] = tested on: Beas-2B cells; assay: Cell-surface HS / CS after enzyme treatment (anti-HS or anti-CS antibody, flow cytometry); assay type: cell-based; details: 10 U/ml chondroitinase ABC, 2 h, anti-CS monoclonal antibody, untreated cells 100%, n = 3
Method: (§1) Figure 3 HS-dependent ECP^32–-41 internalization. […] (B) Samples of wild-type and mutant CHO cells were each incubated with 5 µM FITC-ECP^32–41 at 37°C for 1 h and then subjected to flow cytometry. (C) Samples of wild-type and mutant CHO cells were incubated with 5 µM FITC-ECP^32–41 at 37°C for 1 h., then washed twice with 1 ml PBS, and fixed for CLSM. Nuclei were stained with Hoechst 34850. Scale bar: 20 µm. (D) Beas-2B cells were treated with heparinase I, heparinase III, or chondroitinase ABC for 2 h prior to incubation with 5 µM FITC-ECP^32–41 at 37°C for 1 h. […] Untreated cells served as the controls. The fluorescence of cells treated with FITC-ECP^32–41 was set to 100%. […] (E) Beas-2B cells were treated with heparinase I, heparinase III, or chondroitinase ABC for 2 h. […] Untreated cells served as the control. The fluorescence of the untreated cells was set to 100%.
To verify that selective cell-surface polysaccharides had been enzymatically removed, the treated cells were subsequently incubated with anti-HS or anti-CS monoclonal antibodies. As expected, heparinase I and heparinase III had decreased the amount of HS on Beas-2B cell surfaces by 48% and 61%, respectively (Figure 3E, left panel), and chondroitinase ABC removed 72% of the cell-surface CS (Figure 3E, right panel). The HS that remained on Beas-2B cell surface accounted for the observed ECP^32–41 internalization into heparinase-treated cells. Conversely, even though 70% of the initial cell-surface CS had been removed, ECP^32–41 internalization was hardly affected–thus as concluded above, HS, rather than CS, is responsible for ECP^32–41 internalization.
Beas-2B cells (3.0×10^5/well) were incubated with RPMI 1640 medium overnight in six-well plates and then treated with 5 U/ml of heparinase I, 2.4 U/ml of heparinase III, or 10 U/ml of chondroitinase ABC (Sigma-Aldrich) at 37°C for 2 h. After a PBS wash, the cells were incubated with FITC-ECP^32–41 and assayed for internalization of the peptide by flow cytometry as described above.

[2] = tested on: Beas-2B cells; assay: Cell viability assay (MTT)
Method: Beas-2B cells were grown in serum-free medium in the presence of ECP^32–41 at indicated concentrations for 24 h. (A) The cytotoxic effect of ECP^32–41 was measured by MTT assay. The cell viability of untreated cells was set to 100%. Cells treated with 0.1% Triton X-100 was used as a positive control. (B) The membrane disruption by ECP^32–41 was measured by LDH assay. LDH released from cells lysed with 0.1% Triton X-100 in medium was defined as 100% leakage and LDH released from untreated cells was set as 0% leakage.
Beas-2B cells were incubated with 10 µM eGFP or eGFP-ECP^32–41 at 37°C for 1 h. The cells were then washed with 500 µl PBS, trypsinized at 37°C for 15 min, suspended in 500 µl PBS, and subjected to flow cytometry. (B) Beas-2B cells were treated with the indicated concentrations of TAT^47–57, ECP^32–41, KLA, KLA-TAT^47–57 or KLA-ECP^32–41 at 37°C for 24 h, and their cytotoxic effects were determined by the MTT assay. Cytotoxic effects of (C) KLA-TAT^47–57 and (D) KLA-ECP^32–41, at the indicated concentrations, on Beas-2B, A549, Caco-2, and AGS cells were assessed by the MTT assay after incubation at 37°C for 24 h. The cell viability untreated cells was set to 100%. The result is expressed as the mean ± S.D., n = 3.
The effects of the peptides on cell viability were determined colourimetrically using 3-(4,5-dimethylthiazol-2-yl)-2,5-diphenyltetrazolium bromide (MTT) (US Biological). Cells (1.0×10^4/well) were seeded into the wells of 96-well plates and incubated overnight. Cell samples were then exposed to different concentrations of TAT^47–57, ECP^32–41, KLA, KLA-TAT^47–57 or KLA-ECP^32–41. After 24 h, 100 µl of 0.5 mg/ml MTT in medium was added into each well, and the cells were incubated at 37°C for 3 h. The incubation medium was removed, and the remaining purple crystal formazan was dissolved in dimethylsulphoxide. Cells treated with 0.1% Triton X-100 was used as a positive control for cell viability. A540 values were measured using a multiwall plate reader (Molecular Devices).

[3] = tested on: Caco-2 cells; assay: Cell viability assay (MTT); assay type: cell-based, human; details: 24 h
From the text: (§2) The cell viability untreated cells was set to 100%.

[4] = tested on: AGS cells; assay: Cell viability assay (MTT); assay type: cell-based, human; details: 24 h
From the text: as §2

[5] = tested on: CHO-pgsA745 cells; assay: Cell-based ELISA: binding to GAG-deficient CHO cells; design: species or system Chinese hamster; details: CHO-pgsA745 cells (no GAG), 5 µM FITC-ECP32–41, 4°C, 1 h, CHO-K1 normalized to 100%, n = 3
Method: (§3) Cell-membrane GAGs including HS, CS/DS, and HA are necessary for CPP internalization, [6]. To assess the effect of GAGs on ECP^32–41 cellular binding ability, soluble GAGs including LMWH, CSC, and HA were used as competitors to inhibit the attachment of ECP^32–41 to Beas-2B cells. […] To clarify the roles of cell-surface HS and CS, the binding of ECP^32–41 to wild-type and two mutant strains of Chinese hamster ovary (CHO) cells was assessed by ELISA. […] CHO-pgsA745 cells are deficient in xylosyltransferase so that no GAG was present on the surface. […] GAGs, and especially HSPGs, are therefore crucial for the initial interaction of ECP^32–41 with cell surfaces.
(§4) Figure 2 Cell-surface GAG-dependent binding of ECP^32–41. […] After washed twice with PBS, cells were subjected to ELISA. […] (B) CHO cells were incubated with 5 µM FITC-ECP^32–41 at 4°C for 1 h, washed twice with PBS, and subjected to ELISA. The amount of FITC-ECP^32–41 bound to CHO-K1 cells was normalized to 100%.
(§5) Cells (2×10^4/well) were seeded into 96-well black plate and incubated under a 5% CO2 atmosphere at 37°C for 24 h. Each well was then washed with 150 µl ice-cold PBS. […] Each well was then washed with 100 µl PBS and the FITC fluorescent intensity for each sample was measured using a fluorescence spectrophotometer (Wallac Victor II, Perkin Elmer, USA) and excitation and emission wavelengths of 485 nm and 521 nm respectively.

[6] = tested on: Beas-2B cells; assay: Cell-based ELISA: binding of FITC-peptides to Beas-2B cells; details: 5 µM FITC-peptides, 4°C, 1 h, washed twice with PBS, cell-based ELISA (FITC fluorescence), FITC-ECP32–41 bound normalized to 100%, mean ± S.D., n = 4
Method: Cells (2×10^4/well) were seeded into 96-well black plate and incubated under a 5% CO2 atmosphere at 37°C for 24 h. Each well was then washed with 150 µl ice-cold PBS. To prevent non-specific antibody binding, BSA was used as a blocking agent, and PBS containing 2% (w/v) BSA was added to each well at 4°C and incubated for 1 h. The wells were then washed with 100 µl ice-cold PBS. FITC-conjugated peptides were diluted to 10, 20, or 100 µM in PBS and then, medium (95 µl) and a peptide/PBS solution (5 µl) were gently mixed, added into a well, and the plate was placed on ice for 1 h. Each well was then washed with 100 µl PBS and the FITC fluorescent intensity for each sample was measured using a fluorescence spectrophotometer (Wallac Victor II, Perkin Elmer, USA) and excitation and emission wavelengths of 485 nm and 521 nm respectively.

[7] = tested on: Beas-2B cells; assay: Membrane disruption assay (LDH leakage); assay type: cell-based; details: up to 100 µM, 37°C, 24 h, 0.1% Triton X-100 = 100% leakage, P>0.05, n = 3
Method: Lactate dehydrogenase (LDH) was used to quantify membrane disruption. The release of LDH from cells was measured by Promega CytoTox-ONE assay (Promega, USA). […] Cell samples were then exposed to different concentrations of ECP^32–41. After 24 h, 100 µl of extracellular medium was transferred to a black 96-well plate containing 100 µl of CytoTox-ONE reagent, incubated at RT for 10 min. Fluorescent intensity for each sample was measured using a fluorescence spectrophotometer (Wallac Victor II, Perkin Elmer, USA) and excitation and emission wavelengths of 540 nm and 590 nm respectively.

[8] = tested on: CHO-K1 cells; assay: Internalization into wild-type CHO cells (flow cytometry and CLSM); assay type: cell-based, Chinese hamster; details: 5 µM FITC-ECP32–41, 37°C, 1 h
Method: as §1
(§6) Cells (3.0×10^5/well) were added into six-well plates and cultured in the indicated medium. After 24 h, each FITC-peptide, dissolved in medium, was added into a well and the samples incubated for 1 h. Cells were then harvested, washed, and suspended in PBS. The fluorescent intensities of the cell samples were measured using a FACSCalibur flow cytometer (BD Biosciences, Franklin Lakes, NJ) and excitation and emission wavelengths of 488 nm and 515–545 nm respectively. […]

[9] = Circular dichroism spectroscopy; assay type: physicochemical; details: data not shown
[10] = tested on: CHO-pgsD677 cells; assay: Cell-based ELISA: binding to HS-deficient CHO cells; design: species or system Chinese hamster; details: CHO-pgsD677 cells (lack HS), 5 µM FITC-ECP32–41, 4°C, 1 h, CHO-K1 normalized to 100%, n = 3
Method: as §3, §4, §5

[11] = tested on: Beas-2B cells; assay: Internalization after heparinase / chondroitinase ABC depletion of GAGs; assay type: cell-based; details: 10 U/ml chondroitinase ABC, 37°C, 2 h, then 5 µM FITC-ECP32–41, 37°C, 1 h; flow cytometry; n = 3
Method: as §1, §6

[12] = tested on: Beas-2B cells; assay: Confocal laser-scanning microscopy (CLSM) of FITC-peptide internalization; assay type: cell-based; details: 5 µM peptide, 37°C, 5 and 60 min
Method: (§7) Figure 1 Internalization of ECP^32–41 and EDN^32–41. (A) Beas-2B cells were incubated with 1, 5, 10, or 20 µM FITC-ECP^32–41, FITC-EDN^32–41, or FITC at 37°C for 1 h. […] (B) Beas-2B cells were incubated with 5 µM FITC-ECP^32–41, FITC-EDN^32–41, or FITC at 37°C for 5, 10, 30, or 60 min. The cells were then treated as described in (A) and subjected to flow cytometry. The results in (A) and (B) are expressed as the mean ± standard deviation (S.D.), n = 3. (C) Beas-2B cells were incubated with 5 µM FITC-ECP^32–41, FITC-EDN^32–41, or FITC at 37°C for 5 or 60 min before CLSM. Nuclei were stained with Hoechst 34850. Scale bar: 20 µm.
Cells were cultured on coverslips (1.0×10^4/coverslip) in indicated medium. After 24 h, cell samples were each incubated at 37°C for 1 h with an FITC-peptide. The cells were then washed twice with PBS, fixed with 2% (w/v) paraformaldehyde and incubated, first in PBS for 15 min, then with 50 mM NH4Cl in PBS for 10 min, and finally permeabilised with 0.5% (v/v) Triton-X-100 at 25°C for 5 min. Nuclei were stained with Hoechst 33342 Fluorescent Stain, (Sigma-Aldrich) during the final 5 min of incubation. Cells were then washed twice with 0.05% Triton-X-100, once with PBS, and the coverslips were mounted in a Vectashield anti-fade mounting medium (Vector Labs). […]

[13] = tested on: Beas-2B cells; assay: Flow cytometry: internalization of FITC-peptides into Beas-2B cells; assay type: cell-based; details: 5 µM FITC-peptides, 37°C, 1 h, washed, trypsinized 37°C 15 min, cells treated with ECP32–41 set as 100%, mean ± S.D., n = 4
Method: Internalization of FITC-ECP^32–41 and FITC-EDN^32–41 was measured as the median ﬂuorescence intensity (MFI) of 6.0×10^5 Beas-2B cells that had been treated with one of the FITC-labelled peptides (1 to 20 µM) at 37°C for 1 h, and then treated with trypsin to remove surface-bound peptides. […] When Beas-2B cells were treated with 5 µM of a FITC-peptide at 37°C, the fluorescent signal for FITC-ECP^32–41 increased within 5 min, and reached plateau at 30 min (Figure 1B).
as §7
Cells (3.0×10^5/well) were added into six-well plates and cultured in the indicated medium. […] The fluorescent intensities of the cell samples were measured using a FACSCalibur flow cytometer (BD Biosciences, Franklin Lakes, NJ) and excitation and emission wavelengths of 488 nm and 515–545 nm respectively. […]

[14] = tested on: CHO pgsA-745 cells; assay: Internalization into GAG-deficient CHO cells (flow cytometry and CLSM); assay type: cell-based, Chinese hamster; details: CHO pgsA745 cells, 5 µM FITC-ECP32–41, 37°C, 1 h
Method: as §1, §6

[15] = tested on: CHO pgsD-677 cells; assay: Internalization into HS-deficient CHO cells (flow cytometry and CLSM); assay type: cell-based, Chinese hamster; details: CHO pgsD677 cells, 5 µM FITC-ECP32–41, 37°C, 1 h
Method: as §1, §6

Substance: chondroitinase ABC
- cell-surface CS removed [1]: 72%

Substance: KLAKLAKKLAKLAK
- cytotoxicity (MTT) [2]: not cytotoxic

Substance: KLAKLAKKLAKLAKNYRWRCKNQN [KLA-ECP^32–41]
- EC50 fold higher than that of KLA-TAT47–57 [3]: 1.6 fold
- EC50 fold higher than that of KLA-TAT47–57 [4]: 2.42 fold

Substance: NYRWRCKNQN [ECP^32–41]
- reduction of binding versus CHO-K1 cells [5]: 52%
- Binding (%) [6]: 100%
- LDH levels (membrane disruption), treated versus untreated cells [7]: no significant changes
- internalization monitored by CLSM [8]: clearly observed for CHO-K1 cells
- secondary structure by circular dichroism spectroscopy [9]: random coil
- cell viability (MTT) at 100 µM [2]: neither peptide affected cell viability
- reduction of binding versus CHO-K1 cells [10]: 31%
- effect of CS depletion (chondroitinase ABC) on internalization [11]: little effect
- intracellular fluorescence by CLSM [12]: clearly detected
- Penetrating (%) [13]: 100%
- internalization monitored by CLSM [14]: but not for CHO pgsD677 or pgsA745 cells
- internalization monitored by CLSM [15]: but not for CHO pgsD677 or pgsA745 cells
